Here are results for four molecules from paper PMC11414674, “Cryo-EM structure of ACE2-SIT1 in complex with tiagabine” (The Journal of Biological Chemistry, 2024).

For data set [1], the target named is T1, SIT1 (SLC6A20) (Homo sapiens, UniProt Q9NP91). The data set can be described thus: […]proline uptake in Xenopus oocytes, inhibitor at […]. It is filed as cell-based. Set-up: with ACE2. The following applies: read-out: % inhibition at 100 μM.
In data set [2] the target is T1, SIT1 (SLC6A20). Briefly: cryo-EM structure at […] Å; IC50 from […]proline uptake in Xenopus oocytes expressing SIT1-ACE2 ([…] proline). It is filed as cell-based. Set-up: full-length human SIT1, N-terminal FLAG tag, in complex with full-length ACE2; with ACE2.
For the next data set, the target named is T2, B0AT2 (SLC6A15) (Homo sapiens, UniProt Q9H2J7).
T2 sequence (Q9H2J7 1-730): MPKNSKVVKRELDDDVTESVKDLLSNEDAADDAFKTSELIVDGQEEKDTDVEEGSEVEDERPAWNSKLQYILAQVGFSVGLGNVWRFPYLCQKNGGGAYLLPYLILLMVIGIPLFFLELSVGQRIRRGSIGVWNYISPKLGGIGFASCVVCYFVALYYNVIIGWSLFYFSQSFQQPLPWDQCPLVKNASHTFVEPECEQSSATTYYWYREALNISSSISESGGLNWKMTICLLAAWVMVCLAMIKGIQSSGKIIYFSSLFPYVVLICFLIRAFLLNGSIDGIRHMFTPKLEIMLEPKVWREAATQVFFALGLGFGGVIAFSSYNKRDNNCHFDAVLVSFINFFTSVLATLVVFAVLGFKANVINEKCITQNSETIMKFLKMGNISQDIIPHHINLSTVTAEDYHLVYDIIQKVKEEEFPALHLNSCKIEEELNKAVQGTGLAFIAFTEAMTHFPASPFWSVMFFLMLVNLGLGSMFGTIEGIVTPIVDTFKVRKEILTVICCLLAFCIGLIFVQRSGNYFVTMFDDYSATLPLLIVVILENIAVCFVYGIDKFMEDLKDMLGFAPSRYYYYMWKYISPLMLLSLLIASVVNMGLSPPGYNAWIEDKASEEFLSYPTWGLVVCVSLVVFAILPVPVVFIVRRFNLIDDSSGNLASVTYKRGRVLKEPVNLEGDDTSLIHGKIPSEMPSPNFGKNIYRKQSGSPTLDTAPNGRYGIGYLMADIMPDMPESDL
Briefly: labelled leucine uptake in Xenopus oocytes, tiagabine at […]. It is filed as cell-based.

Substrate in data set [3]: O=C(O)[C@@H]1CCCN1
Briefly: cells, lysate or membranes. Conditions: Na+ and Cl- orthosteric substrate site.

T1 sequence (Q9BYF1 18-805 partner, one chain of several): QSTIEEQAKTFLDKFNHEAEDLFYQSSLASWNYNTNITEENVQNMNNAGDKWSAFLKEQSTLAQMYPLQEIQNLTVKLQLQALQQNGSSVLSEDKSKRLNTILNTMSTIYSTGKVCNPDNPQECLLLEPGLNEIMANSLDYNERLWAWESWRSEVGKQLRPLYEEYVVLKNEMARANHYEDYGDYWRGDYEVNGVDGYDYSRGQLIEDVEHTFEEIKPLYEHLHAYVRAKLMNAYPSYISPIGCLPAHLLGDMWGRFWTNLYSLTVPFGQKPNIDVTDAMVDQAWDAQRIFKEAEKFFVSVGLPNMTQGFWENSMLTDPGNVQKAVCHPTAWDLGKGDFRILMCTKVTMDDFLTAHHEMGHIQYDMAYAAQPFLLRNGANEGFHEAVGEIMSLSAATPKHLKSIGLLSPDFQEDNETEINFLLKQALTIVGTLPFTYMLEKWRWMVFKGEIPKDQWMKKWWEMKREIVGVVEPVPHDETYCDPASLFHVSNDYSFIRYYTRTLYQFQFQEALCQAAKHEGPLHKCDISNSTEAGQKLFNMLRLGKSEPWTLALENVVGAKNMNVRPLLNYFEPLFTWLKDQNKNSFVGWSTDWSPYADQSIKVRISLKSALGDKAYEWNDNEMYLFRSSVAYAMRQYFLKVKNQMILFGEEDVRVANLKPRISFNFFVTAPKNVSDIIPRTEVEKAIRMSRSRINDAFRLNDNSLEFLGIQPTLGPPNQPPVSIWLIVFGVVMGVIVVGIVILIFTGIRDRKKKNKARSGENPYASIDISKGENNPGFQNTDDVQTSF

On to `O=C(O)C1=CCCN(CCOC(c2ccc(C(F)(F)F)cc2)c2ccc(C(F)(F)F)cc2)C1` [CI966], for which the inhibition (as a rule, the change of the read-out against control, counted positive when it falls) at 100 µM at SIT1 (SLC6A20) [1] came to 53%.

Regarding `O=C(O)C1CCCN(CCC=C(c2ccccc2)c2ccccc2)C1` (centres unmarked) [SKF89976A], on SIT1 (SLC6A20) [1], the inhibition at 100 µM was 58%. Take `Cc1ccsc1C(=CCCN1CCC[C@@H](C(=O)O)C1)c1sccc1C` [tiagabine]: the midpoint of inhibition against SIT1 (SLC6A20) [2], the IC50, lay at 18 ± 4 µM. For the same molecule, the “labelled leucine uptake in Xenopus oocytes, tiagabine at 100 μM” value on B0AT2 (SLC6A15) was “The branched-chain amino acid transporter B^0AT2 (SLC6A15) was similarly sensitive to inhibition by Tiagabine”.

B1: SIT1 (SLC6A20) (Homo sapiens) (protein)
chain: MEKARPLWANSLQFVFACISYAVGLGNVWRFPYLCQMYGGGSFLVPYIIMLIVEGMPLLYLELAVGQRMRQGSIGAWRTISPYLSGVGVASVVVSFFLSMYYNVINAWAFWYLFHSFQDPLPWSVCPLNGNHTGYDEECEKASSTQYFWYRKTLNISPSLQENGGVQWEPALCLLLAWLVVYLCILRGTESTGKVVYFTASLPYCVLIIYLIRGLTLHGATNGLMYMFTPKIEQLANPKAWINAATQIFFSLGLGFGSLIAFASYNEPSNNCQKHAIIVSLINSFTSIFASIVTFSIYGFKATFNYENCLKKVSLLLTNTFDLEDGFLTASNLEQVKGYLASAYPSKYSEMFPQIKNCSLESELDTAVQGTGLAFIVYTEAIKNMEVSQLWSVLYFFMLLMLGIGSMLGNTAAILTPLTDSKIISSHLPKEAISGLVCLVNCAIGMVFTMEAGNYWFDIFNDYAATLSLLLIVLVETIAVCYVYGLRRFESDLKAMTGRAVSWYWKVMWAGVSPLLIVSLFVFYLSDYILTGTLKYQAWDASQGQLVTKDYPAYALAVIGLLVASSTMCIPLAALGTFVQRRLKRGDADPVA
With B1, the Km (usually the substrate concentration at which the rate is half of its maximum) in data set [3] stood at 130 µM.
